Measured values: PMC11576293, “New series of 4,6-diaryl pyrimidines: facile synthesis and antiproliferative activity as dual EGFR/VEGFR-2 inhibitors” (Frontiers in Chemistry, 2024)
“And” between values parts separate entries of the source, which are not always exact repeats. Equal values may be shown once.

Assays:
HCT-15 = assay: NCI-60 single-dose screen; format: cell-based; settings: Homo sapiens, single dose 10 µM, '-' = no inhibition, read-out: % Growth Inhibition
In short: (§1)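 NCI DTP single-dose screen; 10 μM compound; 60-line panel, nine cancer types.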

HS 578T = assay: NCI-60 single-dose screen; format: cell-based; settings: Homo sapiens, single dose 10 µM, '-' = no inhibition, read-out: % Growth Inhibition
In short: as §1

M14 = assay: NCI-60 single-dose screen; format: cell-based; settings: Homo sapiens, single dose 10 µM, '-' = no inhibition, read-out: % Growth Inhibition
In short: as §1

SF-539 = assay: NCI-60 single-dose screen; format: cell-based; settings: Homo sapiens, single dose 10 µM, '-' = no inhibition, read-out: % Growth Inhibition
In short: as §1

SK-OV-3 = assay: NCI-60 single-dose screen; format: cell-based; settings: Homo sapiens, single dose 10 µM, '-' = no inhibition, read-out: % Growth Inhibition
In short: as §1

SW-620 = assay: NCI-60 single-dose screen; format: cell-based; settings: Homo sapiens, single dose 10 µM, '-' = no inhibition, read-out: % Growth Inhibition
In short: as §1

T-47D = assay: NCI-60 single-dose screen; format: cell-based; settings: Homo sapiens, T47D, single dose 10 µM, '-' = no inhibition, read-out: % Growth Inhibition
In short: as §1

EGFR = biological target: T1, EGFR (Homo sapiens, UniProt P00533); assay: EGFR-TK inhibitory assay; format: biochemical; settings: read-out: EGFR inhibition IC50 ± SEM
T1 construct: amino acids 645–1186; His6 (N); made in house; host or cells: Sf-9 insect cells (baculovirus; pBlueBacHis2B / pFASTBacHTc)

[1] = Experimental lipophilicity by RP-TLC; format: physicochemical; settings: for Experimental lipophilicity Co: concentration of MeOH at RM = 0, in % (unit assumed)
From the text: The RP-TLC method was used to measure the lipophilicity parameters (RMo, b, and Co) described in the experimental section. The mobile phase consisted of different proportions of water and organic modifier (MeOH). RF and RM values were obtained for each ratio of organic modifier/water system (Supplementary Table S3), and a linear regression analysis was achieved to obtain the lipophilicity chromatographic descriptors (RMo, b, and Co, see Table 6). Relative lipophilicity (RMo) describes the partitioning of the solute between pure water and nonpolar stationary phase. In contrast, the second lipophilicity parameter (Co) represents the concentration of organic modifier in the mobile phase in which the solute is equally distributed between two phases (i.e., RM = 0, and Rf = 0.5). Also, Co is known to be widely used in QSAR analysis as it embraces both the specific hydrophobic surface area of the solute and RMo. […] Finally, the slope of the regression line (b) was used as a descriptor of the specific hydrophobic surface area of the compound. In a series of structurally related compounds, b is linearly correlated with RMo, resulting in a linear relationship that is the basic feature of the chromatographic determination of lipophilicity. […] Moreover, substituents affected tested compounds’ measured lipophilicity parameter (RMo) values. Higher RMo values were found with lipophilic derivatives containing the benzyl group (14, 22, and 28), while lower RMo values were found with derivatives containing alkyl or allyl groups (19, 26, and 27). An interesting contradiction was found with experimental lipophilicity value of 28 and its congener 14, where compound 28 was found more lipophilic than its congener 14 even though it contains two methoxy groups and according to ChemDraw® and MolSoft® programs, derivative 14 should be more lipophilic while the MOE® program expects values matching our findings. […] Also, S-allyl derivatives were nearly equipotent to S-alkyl congeners as antiproliferative agents but quite different in terms of lipophilicity.

VEGFR-2 = VEGFR-2 (Homo sapiens, UniProt P35968); assay: VEGFR-2 inhibitory assay
VEGFR-2, sequence (P35968 20-1356): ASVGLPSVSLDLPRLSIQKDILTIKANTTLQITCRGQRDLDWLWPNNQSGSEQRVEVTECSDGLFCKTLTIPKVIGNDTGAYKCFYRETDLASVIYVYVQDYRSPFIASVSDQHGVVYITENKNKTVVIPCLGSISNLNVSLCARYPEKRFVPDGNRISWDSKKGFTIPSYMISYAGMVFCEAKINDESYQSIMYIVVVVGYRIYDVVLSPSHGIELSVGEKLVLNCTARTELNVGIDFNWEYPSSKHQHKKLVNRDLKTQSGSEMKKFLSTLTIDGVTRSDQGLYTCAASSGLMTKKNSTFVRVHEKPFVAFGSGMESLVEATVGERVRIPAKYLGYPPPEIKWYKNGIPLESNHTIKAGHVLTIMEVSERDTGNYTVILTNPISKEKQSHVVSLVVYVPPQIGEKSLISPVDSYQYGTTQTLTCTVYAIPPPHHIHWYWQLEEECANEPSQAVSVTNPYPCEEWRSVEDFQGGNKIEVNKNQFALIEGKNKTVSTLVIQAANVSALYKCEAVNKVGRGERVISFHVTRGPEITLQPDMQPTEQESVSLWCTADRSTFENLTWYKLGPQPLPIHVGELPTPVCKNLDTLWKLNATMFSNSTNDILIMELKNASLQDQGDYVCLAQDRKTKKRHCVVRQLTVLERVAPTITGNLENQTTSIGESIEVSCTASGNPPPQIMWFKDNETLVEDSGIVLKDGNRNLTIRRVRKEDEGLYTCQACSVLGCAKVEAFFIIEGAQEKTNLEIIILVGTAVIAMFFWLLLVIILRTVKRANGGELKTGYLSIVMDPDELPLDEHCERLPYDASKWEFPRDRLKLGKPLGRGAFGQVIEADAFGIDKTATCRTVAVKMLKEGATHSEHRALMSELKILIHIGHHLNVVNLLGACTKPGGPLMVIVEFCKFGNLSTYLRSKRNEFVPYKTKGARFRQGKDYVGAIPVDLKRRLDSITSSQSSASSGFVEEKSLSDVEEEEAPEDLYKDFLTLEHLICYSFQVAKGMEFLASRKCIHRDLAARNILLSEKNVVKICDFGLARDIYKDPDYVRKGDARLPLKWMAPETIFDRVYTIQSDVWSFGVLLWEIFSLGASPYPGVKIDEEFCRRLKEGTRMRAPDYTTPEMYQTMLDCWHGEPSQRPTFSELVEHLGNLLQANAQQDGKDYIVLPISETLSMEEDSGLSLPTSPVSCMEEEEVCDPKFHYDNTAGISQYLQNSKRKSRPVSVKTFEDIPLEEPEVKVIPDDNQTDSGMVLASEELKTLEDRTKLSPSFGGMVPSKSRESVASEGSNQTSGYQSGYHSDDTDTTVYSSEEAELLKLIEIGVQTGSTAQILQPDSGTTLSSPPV

T1 sequence (P00533 669-1210): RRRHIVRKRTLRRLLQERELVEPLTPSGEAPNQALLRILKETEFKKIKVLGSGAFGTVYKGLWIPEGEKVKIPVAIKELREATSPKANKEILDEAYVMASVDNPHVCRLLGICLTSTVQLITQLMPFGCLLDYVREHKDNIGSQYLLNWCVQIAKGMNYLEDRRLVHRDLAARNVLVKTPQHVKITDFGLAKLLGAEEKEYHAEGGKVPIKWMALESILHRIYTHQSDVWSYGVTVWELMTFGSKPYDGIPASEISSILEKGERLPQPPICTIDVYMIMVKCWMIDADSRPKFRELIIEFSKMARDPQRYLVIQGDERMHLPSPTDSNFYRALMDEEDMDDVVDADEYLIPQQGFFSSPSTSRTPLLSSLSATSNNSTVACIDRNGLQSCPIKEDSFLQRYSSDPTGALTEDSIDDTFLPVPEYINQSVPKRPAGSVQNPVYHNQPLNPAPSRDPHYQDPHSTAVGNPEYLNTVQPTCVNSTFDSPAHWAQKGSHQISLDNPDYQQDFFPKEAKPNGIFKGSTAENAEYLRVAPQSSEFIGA

Row | SMILES | inhibition at 10 µM (HCT-15) | inhibition at 10 µM (HS 578T) | inhibition at 10 µM (M14) | inhibition at 10 µM (SF-539) | inhibition at 10 µM (SK-OV-3) | inhibition at 10 µM (SW-620) | inhibition at 10 µM (T-47D) | IC50 (EGFR) | Experimental lipophilicity RMo ([1]; MeOH/water mobile phase) | Experimental lipophilicity b (slope) ([1]; MeOH/water mobile phase) | Experimental lipophilicity Co [1] | IC50 (VEGFR-2)
1 | COc1ccc(-c2cc(-c3ccc(Cl)cc3)nc(SC)n2)cc1 [Compound 9, 4-(4-Chlorophenyl)-6-(4-methoxyphenyl)-2-(methylthio)pyrimidine] | 15% | 7.95% | 3.51% | 6.28% | < 0% | 6.31% | 9.97% | – | – | – | – | –
2 | CCSc1nc(-c2ccc(Cl)cc2)cc(-c2ccc(OC)cc2)n1 [Compound 10, 4-(4-Chlorophenyl)-2-(ethylthio)-6-(4-methoxyphenyl)pyrimidine] | 14.4% | 2.58% | < 0% | < 0% | < 0% | < 0% | 18.6% | – | – | – | – | –
3 | CCCSc1nc(-c2ccc(Cl)cc2)cc(-c2ccc(OC)cc2)n1 [Compound 11, 4-(4-Chlorophenyl)-6-(4-methoxyphenyl)-2-(propylthio)pyrimidine] | 7.25% | < 0% | < 0% | < 0% | < 0% | 0.11% | 8.26% | – | – | – | – | –
4 | COc1ccc(-c2cc(-c3ccc(Cl)cc3)nc(SC(C)C)n2)cc1 [Compound 12, 4-(4-Chlorophenyl)-2-(isopropylthio)-6-(4-methoxyphenyl)pyrimidine] | 38.7% | < 0% | 8.46% | 6.88% | < 0% | 5.57% | 40.4% | – | – | – | – | –
5 | C=CCSc1nc(-c2ccc(Cl)cc2)cc(-c2ccc(OC)cc2)n1 [Compound 13, 2-(Allylthio)-4-(4-chlorophenyl)-6-(4-methoxyphenyl)pyrimidine] | 7.93% | < 0% | 4.04% | < 0% | < 0% | < 0% | 18.4% | – | – | – | – | –
6 | COc1ccc(-c2cc(-c3ccc(Cl)cc3)nc(SCc3ccccc3)n2)cc1 [Compound 14, 2-(Benzylthio)-4-(4-chlorophenyl)-6-(4-methoxyphenyl)pyrimidine] | 4.95% | < 0% | < 0% | < 0% | < 0% | < 0% | 14.4% | 90 ± 7 nM | 7.024 ± 0.05913 | -0.074 ± 0.00066 | 91.3417 | 2.2 ± 0.02 nM
7 | COc1ccc(CSc2nc(-c3ccc(Cl)cc3)cc(-c3ccc(OC)cc3)n2)cc1 [Compound 15, 2-(4-Methoxybenzylthio)-4-(4-chlorophenyl)-6-(4-methoxyphenyl)pyrimidine] | 0.53% | 9.27% | < 0% | < 0% | < 0% | < 0% | < 0% | – | – | – | – | –
8 | COc1ccc(-c2cc(-c3cccc(OC)c3)nc(SC)n2)cc1 [Compound 16, 6-(3-Methoxyphenyl)-4-(4-methoxyphenyl)-2-(methylthio)pyrimidine] | 19.5% | 5.45% | < 0% | < 0% | 13.7% | 1.89% | 22.2% | – | – | – | – | –
9 | CCSc1nc(-c2ccc(OC)cc2)cc(-c2cccc(OC)c2)n1 [Compound 17, 2-(Ethylthio)-6-(3-methoxyphenyl)-4-(4-methoxyphenyl)pyrimidine] | 2.62% | < 0% | < 0% | < 0% | – | 1.81% | 10.2% | 87 ± 6 nM | – | – | – | 1.85 ± 0.01 nM
10 | CCCSc1nc(-c2ccc(OC)cc2)cc(-c2cccc(OC)c2)n1 [Compound 18, 6-(3-Methoxyphenyl)-4-(4-methoxyphenyl)-2-(propylthio)pyrimidine] | 8.49% | < 0% | 9.08% | < 0% | < 0% | < 0% | 13.8% | – | – | – | – | –
11 | COc1ccc(-c2cc(-c3cccc(OC)c3)nc(SC(C)C)n2)cc1 [Compound 19, 2-(Isopropylthio)-6-(3-methoxyphenyl)-4-(4-methoxyphenyl)pyrimidine] | 24.5% | 4.95% | < 0% | 0.24% | < 0% | < 0% | 24.6% | 83 ± 6 nM | 7.02 | – | 87.6579 and 91.32 | 2.7 ± 0.02 nM
12 | C=CCSc1nc(-c2ccc(OC)cc2)cc(-c2cccc(OC)c2)n1 [Compound 20, 2-(Allylthio)-6-(3-methoxyphenyl)-4-(4-methoxyphenyl)pyrimidine] | 5.58% | < 0% | 4.9% | < 0% | < 0% | < 0% | 21.5% | – | – | – | – | –
13 | COc1ccc(-c2cc(-c3ccc(Cl)cc3)nc(SC)n2)cc1OC [Compound 23, 4-(4-Chlorophenyl)-6-(3,4-dimethoxyphenyl)-2-(methylthio)pyrimidine] | 28% | 17% | 0.3% | 15.7% | 2.94% | 1.5% | 25.5% | – | – | – | – | –
14 | CCSc1nc(-c2ccc(Cl)cc2)cc(-c2ccc(OC)c(OC)c2)n1 [Compound 24, 4-(4-Chlorophenyl)-2-(ethylthio)-6-(3,4-dimethoxyphenyl)pyrimidine] | 30.7% | 20.6% | 3.7% | 7.9% | < 0% | 20.9% | 37.6% | – | – | – | – | –
15 | CCCSc1nc(-c2ccc(Cl)cc2)cc(-c2ccc(OC)c(OC)c2)n1 [Compound 25, 4-(4-Chlorophenyl)-6-(3,4-dimethoxyphenyl)-2-(propylthio)pyrimidine] | 20.9% | < 0% | < 0% | 1.28% | 2.94% | 3.63% | 34.5% | 78 ± 5 nM | – | – | – | 2.95 ± 0.02 nM
16 | COc1ccc(-c2cc(-c3ccc(Cl)cc3)nc(SC(C)C)n2)cc1OC [Compound 26, 4-(4-Chlorophenyl)-2-(isopropylthio)-6-(3,4-dimethoxyphenyl)pyrimidine] | 4.73% | < 0% | < 0% | < 0% | < 0% | 2.64% | 14.2% | – | 6.45 | – | 86.518 and 90.64 | –
17 | C=CCSc1nc(-c2ccc(Cl)cc2)cc(-c2ccc(OC)c(OC)c2)n1 [Compound 27, 2-(Allylthio)-4-(4-chlorophenyl)-6-(3,4-dimethoxyphenyl)pyrimidine] | 18.8% | < 0% | 0.06% | < 0% | < 0% | 1.7% | 23.1% | – | 5.79 | – | 87.9561 and 86.52 | –
18 | COc1ccc(-c2cc(-c3ccc(Cl)cc3)nc(SCc3ccccc3)n2)cc1OC [Compound 28, 2-(Benzylthio)-4-(4-chlorophenyl)-6-(3,4-dimethoxyphenyl)pyrimidine] | 27.6% | 18.2% | 0.81% | 17.8% | 2.92% | 2.79% | 33% | – | 5.32 | – | 91.4199 and 87.18 | –
